Source: patent publication US20230390304A1, “Method and Composition for Treating Epilepsy” (Lipocine Inc., priority 2022, published 2023)

Test: Solubility of 3α-OH-5β-pregnan-20-one in SBE-β-CD (cyclodextrin) solution
Type: physicochemical
Description: When utilizing sulfobutylether-β-cyclodextrin (SBE-3-CD) oral compositions including solubilized or semi solid 3α-OH-5β-pregnan-20-one, it may be challenging to load proper amounts of 3α-OH-5β-pregnan-20-one so as to deliver effective serum levels of 3α-OH-5β-pregnan-20-one due to limitations with respect to 3α-OH-5β-pregnan-20-one solubility in various cyclodextrin solutions including SBE-β-CD (e.g. only ˜6 mg/ml of 3α-OH-5β-pregnan-20-one solubility in 24% w/v non-encapsulated SBE-β-CD solution). The solubilized fraction of 3α-OH-5β-pregnan-20-one began to decline, as observed by precipitation, when 3α-OH-5β-pregnan-20-one concentration was above 8 mg/ml. The amount of 3α-OH-5β-pregnan-20-one in the cyclodextrin solution can only be enabled by about 0.6% w/w loading amount of the composition fill. Moreover, high cyclodextrin amounts required to solubilize 3α-OH-5β-pregnan-20-one also present safety concerns. In some aspects, the compositions and dosage forms of this invention can comprise higher 3α-OH-5β-pregnan-20-one loading amounts than ones formulated in non-encapsulated SBE-β-CD or any cyclodextrin solution composition.

Question: With CC(=O)[C@H]1CC[C@H]2[C@@H]3CC[C@@H]4C[C@H](O)CC[C@]4(C)[C@H]3CC[C@]12C [3α-OH-5β-pregnan-20-one] as the compound, how does the “3α-OH-5β-pregnan-20-one concentration above which the solubilized fraction began to decline, as observed by precipitation” value (cyclodextrin (SBE-β-CD) solution) read?
Answer: Its value is “above 8 mg/ml”.

Question: And the “loading amount of the composition fill enabled in the cyclodextrin solution” value (cyclodextrin solution)?
Answer: Its value is “about 0.6 % w/w”.

Question: And the 3α-OH-5β-pregnan-20-one solubility (in 24% w/v non-encapsulated SBE-β-CD solution)?
Answer: The 3α-OH-5β-pregnan-20-one solubility was roughly 6000 µg/mL.
